These results are taken from patent US5371099A, “Phenyl carboxamide isoxazoles” (Roussel-Uclaf, priority 1992, dated 1994).

Each structure is given as a SMILES string.

The nature of data set [1]: Pharmacokinetic comparison, plasma concentrations of parent compound and active metabolite in mice. The class given is in vivo. Conditions: 30 mg/kg orally. Here is the method:
A pharmacokinetic comparison was made between the compound of Example 8 in which R5 is methyl and the corresponding known compound in which R5 is hydrogen. Each compound was administered orally to mice at a dose of 30 mg/kg and plasma concentrations of the parent compound and the corresponding active metabolite were determined at various time points after administration.

Data set [2] has as its system Carrageenan rat paw oedema. The data set can be described thus: Test 1: Carrageenan rat paw oedema (PO-R). In kind it is in vivo, rat (male CFHB). The following applies: 3 h; for inhibition in vivo at 10 mg/kg: 10 mg/kg p.o.; for inhibition in vivo at 50 mg/kg: 50 mg/kg p.o. Here is the method:
Carrageenan rat paw oedema (PO-R)
One hour after the oral administration of the test compounds or control vehicle to groups of 6 to 12 male CFHB rats, weighing 160-180 g, 1 mg of carrageenan dissolved in 0.2 ml of saline was injected into the right hind foot pad. Contralateral paws received control saline injections. Paw oedema responses were assessed three hours later.
(§1) Doses are given in units of mg/kg p.o.
In general terms: The carrageenan paw model is a standard test of acute inflammation.

For data set [3], the system named is Delayed-type hypersensitivity mouse paw oedema. Description: Test 2: Delayed-type hypersensitivity mouse paw oedema (DTH-M). In kind it is in vivo, mouse (male CD-1). Conditions: po, 24 h; for inhibition in vivo at 100 mg/kg: 100 mg/kg p.o. Here is the method:
Delayed-type hypersensitivity mouse paw oedema (DTH-M)
Groups of 8 to 10 mice, male CD-1 weighing 25-30 g were sensitized by the subcutaneous injection of 1 mg of methylated bovine serum albumin (MBSA) in 0.2 ml volumes of saline/Freund's complete adjuvant (FCA) emulsion. Negative control groups received injections of saline/FCA emulsion. DTH paw oedema responses were assessed twenty-four hours after the right hind foot pad challenge with 0.1 mg of MBSA in 0.05 ml volumes of saline on day seven after sensitization. Contralateral paws received control saline injections. The test compounds or control vehicles were orally administered daily on days four, five, six and twice on day seven, one hour before and six hours after MBSA challenge.
as §1

Data set [4] relates to Delayed-type hypersensitivity rat paw oedema. Description: Test 3: Delayed-type hypersensitivity rat paw oedema (DTH-R).
Where [5] appears, read: Rattus norvegicus, po, 24 h, read-out: % Inhibition (Test 3, DTH-R).

Take `Cc1onc(C(=O)O)c1C(=O)Nc1ccc(OC(F)(F)F)cc1` [known compound, reference compound]: in data set [1] (plasma, 72 hours), the “detectability of the active metabolite at 72 hours after administration” value is listed as “still being detectable”.
With `O=C(O)c1noc(C2CC2)c1C(=O)Nc1ccc(OC(F)(F)F)cc1` [Example 11], the inhibition in vivo at 3 mg/kg in data set [2] (3 mg/kg p.o.) is -2%. For the same compound, the inhibition in vivo at 30 mg/kg in data set [3] (30 mg/kg p.o.) was 37%. The inhibition in vivo at 100 mg/kg in data set [3] stood at 65%. Besides, the “toxicity printed in place of % Inhibition (Test 3, DTH-R)” value in data set [4] (50 mg/kg p.o.) was “Toxic”. In data set [4] (setting [5]), the inhibition in vivo at 3 mg/kg is 65% and the inhibition in vivo at 10 mg/kg is 95%.
Turning to `Cc1cc(NC(=O)c2c(C(=O)O)noc2C)ccc1OC(F)(F)F` [Example 8, 5-methyl-4-[N-(3-methyl-4-trifluoromethoxy)phenyl]carbamoyl-3-isoxazolecarboxylic acid], the inhibition in vivo at 10 mg/kg in data set [2] came out at 16%. Besides, in data set [3], the inhibition in vivo at 100 mg/kg stood at 48%. Further, the “detectability of the active metabolite 24 hours after administration” value in data set [1] (plasma, 24 hours) is given as “no metabolite detectable”. In data set [4] (setting [5]), the inhibition in vivo at 10 mg/kg was found to be 34% and the inhibition in vivo at 50 mg/kg came out at 79%.
With `Cc1cc(NC(=O)c2c(C(=O)O)noc2C)ccc1Cl` [Example 4, 4-[N-(4-chloro-3-methyl)phenyl]carbamoyl-5-methyl-3-isoxazolecarboxylic acid], the values for the inhibition in vivo at 50 mg/kg in data set [2] and in data set [4] (setting [5]) were -10% and 6%, respectively. Further, the inhibition in vivo at 100 mg/kg in data set [3] is 24%.
Take `O=C(O)c1noc(C2CC2)c1C(=O)Nc1ccc(SC(F)(F)F)cc1` [Example 12, 5-cyclopropyl-4-[N-(4-trifluoromethylthio)phenyl]carbamoyl-3-isoxazolecarboxylic acid]: the values for the inhibition in vivo at 10 mg/kg in data set [2] and in data set [4] (setting [5]) were 11% and 75%, respectively. Besides, the inhibition in vivo at 100 mg/kg in data set [3] is 36%.
With `Cc1cc(NC(=O)c2c(C(=O)O)noc2C)ccc1Br` [Example 3, 4-[N-(4-bromo-3-methyl)phenyl]carbamoyl-5-methyl-3-isoxazolecarboxylic acid], the inhibition in vivo at 50 mg/kg was -10% in data set [2] and -4% in data set [4] (setting [5]). For the same compound, the inhibition in vivo at 100 mg/kg in data set [3] was 35%.
In the same order, the values of `Cc1onc(C(=O)O)c1C(=O)Nc1ccc(C#N)cc1` [Example 2, 4-[N-(4-cyanophenyl)]carbamoyl-5-methyl-3-isoxazolecarboxylic acid] are -25%, -47% and 27%.
`Cc1cc(NC(=O)c2c(C(=O)O)noc2C2CC2)ccc1C(F)(F)F` [Example 10, 5-cyclopropyl-4-[N-(3-methyl-4-trifluoromethyl)phenyl]carbamoyl-3-isoxazolecarboxylic acid]: the inhibition in vivo at 50 mg/kg in data set [2] came out at 5%; in data set [4] (setting [5]) it was 73%. Moreover, in data set [3], the inhibition in vivo at 100 mg/kg was determined as 12%.
The like results for `Cc1onc(C(=O)O)c1C(=O)Nc1ccc([N+](=O)[O-])cc1` [Example 1, 5-methyl-4-[N-(4-nitrophenyl)]carbamoyl-3-isoxazolecarboxylic acid] were, in that order, -2%, 28% and 41%.
As for `O=C(O)c1noc(C2CC2)c1C(=O)Nc1ccc(C(F)(F)F)cc1` [Example 9, 5-cyclopropyl-4-[N-(4-trifluoromethyl)phenyl]carbamoyl-3-isoxazolecarboxylic acid], the inhibition in vivo at 10 mg/kg in data set [2] was -24%; in data set [4] (setting [5]), 45%. Moreover, the inhibition in vivo at 100 mg/kg in data set [3] worked out at 72%. The “pharmacokinetics compared with known compound in which R5 is hydrogen” value in data set [1] (effect of methyl substituent) is reported as “improved pharmacokinetics”. In addition, the inhibition in vivo at 50 mg/kg in data set [4] (setting [5]) was determined as 86%.
On to `Cc1onc(C(=O)O)c1C(=O)Nc1ccc(SC(F)(F)F)cc1` [Example 7, 5-methyl-4-[N-(4-trifluoromethylthio)phenyl]carbamoyl-3-isoxazolecarboxylicacid], for which the inhibition in vivo at 50 mg/kg in data set [2] worked out at 1%. The inhibition in vivo at 100 mg/kg in data set [3] came to 14%. Besides, in data set [4] (setting [5]), the inhibition in vivo at 10 mg/kg came out at 42% and the inhibition in vivo at 50 mg/kg turned out to be 73%.
For `Cc1cc(NC(=O)c2c(C(=O)O)noc2C2CC2)ccc1OC(F)(F)F` [Example 13, 5-cyclopropyl-4-[N-(3-methyl-4-trifluoromethoxy)phenyl]carbamoyl-3-isoxazolecarboxylic acid], the figures for the inhibition in vivo at 10 mg/kg in data set [2] and in data set [4] (setting [5]) were 5% and 47%, respectively. Further, the inhibition in vivo at 100 mg/kg in data set [3] came out at 52%.
`CCOC(=O)c1noc(C)c1C(=O)Nc1ccc(C(F)(F)F)c(C)c1` [Example 18, Ethyl 5-methyl-4-[N-(3-methyl-4-trifluoromethyl)phenyl]carbamoyl-3-isoxazolecarboxylate]: the inhibition in vivo at 50 mg/kg worked out at 23% in data set [2] and 50% in data set [4] (setting [5]). Also, in data set [3], the inhibition in vivo at 100 mg/kg was 3%.
With `Cc1cc(NC(=O)c2c(C(=O)O)noc2C)ccc1C(F)(F)F` [Example 5, 5-methyl-4-[N-(3-methyl-4-trifluoromethyl)phenyl]carbamoyl-3-isoxazolecarboxylic acid], the inhibition in vivo at 50 mg/kg in data set [2] was determined as 18%. Further, the inhibition in vivo at 100 mg/kg in data set [3] was determined as 44%. In data set [4] (setting [5]), the inhibition in vivo at 10 mg/kg stood at 44% and the inhibition in vivo at 50 mg/kg came out at 95%.
On to `Cc1cc(NC(=O)c2c(C(=O)O)noc2C)ccc1C#N` [Example 6, 4-[N-(4-cyano-3-methyl)phenyl]carbamoyl-5-methyl-3-isoxazolecarboxylic acid], for which the inhibition in vivo at 50 mg/kg in data set [2] came to 5%; in data set [4] (setting [5]) it was 25%. Moreover, the inhibition in vivo at 100 mg/kg in data set [3] came to 5%.
